From patent US20010055590A1, “Method for enhancing myoblast migration and invasion in the context of gene therapy” (priority 1999, published 2001)

Assays:
Type in all cases: cell-based
mouse myoblasts = assay: Invasion of mouse myoblasts transiently over-expressing MMPs; details: NAC treatment, n=4
Description: Myoblast migration and invasion were examined using a commercially available in vitro cell migration and invasion assay kit (Biocoat, Becton Dickinson, Franklin Lakes, N.J.) as described by Albini et al. (A rapid in vitro assay for quantitating the invasive potential of tumor cells Cancer Res 47:3239-3245, 1987). Myoblasts were grown to approximately 70% confluence, rinsed three times in serum-free DMEM, followed by incubation for 3 hours in 0.2% bovine serum albumin (BSA) in DMEM to eliminate the effects of serum. Cells were then trypsinized and collected by centrifugation. Cells were resuspended in serum-free DMEM at a density of 1×10^5 cells/ml, and 0.5 ml aliquots of cell suspension were added to the top chamber. […] Fibronectin subfragments of 45 KDa (Sigma), 120 kDa (Gibco), 63 kDa (Retronectin, Takara) and 70 KDa (Sigma) were used alone or in combination. The growth factor concentrations used were those which could produce maximal effects as examined in the present studies by extending from values reported by Bischoff (“Chemotaxis of skeletal muscle satellite cells” Devel. Dynamics 208:505-515, 1997). […] The number of cells per field was counted in 10 randomly selected fields and averaged for each condition. […]

MMP-9 = assay: Gelatin zymography of human myoblasts, MMP-9
Description: Briefly, myoblasts were grown in 6 cm tissue culture plates to approximately 70% confluence, then rinsed three times with serumfree DMEM and incubated for 3 hours in DMEM containing 0.2% BSA to eliminate the effects of serum. Growth factors were added and cells were incubated for 24 hours. Culture medium was then collected, centrifuged to pellet detached cells, and concentrated ten-to twenty-fold using the Centricon-10 (Amicon, Beverly, Mass.) system. The protein concentration of the supernatants was determined using the Bio-Rad protein microassay system with BSA used as the standard. Samples were stored at −70° C. until use. For gelatin zymography, aliquots (10 μg as the total protein per sample) were electrophoresed at constant voltage on a 10% polyacrylamide gel containing 2 mg/ml gelatin. The gel was rinsed three times for 15 min in 2.5% Triton-X 100 to remove SDS and renature the proteins, then incubated in MMP activation buffer (0.05 M Tris-HCl, pH 7.5 with 5 mM CaCl2) for 24 hours at 37° C. with constant shaking. Gels were stained overnight in 0.5% Coomassie blue R-250, and destained for 1 hour in 40% methanol: 10% acetic acid. Proteinase activity was quantified by densitometric scanning of bands using a Bio-Rad Gel Doc 1000 video camera imaging system (Bio Rad, Hercules, Calif.).

human myoblasts = assay: In vitro human myoblast invasion of Matrigel; details: 24 hour time point
Description: Mouse myoblasts were previously isolated from hind limb muscles of 4-6 week old severe combined immunodeficient (SCID) mice and clonally purified from contaminating fibroblasts (Yao et al. “Primary myoblast-mediated gene: transfer: persistent expression of human factor IX in mice” Gene Therapy 1:99-107, 1994). Myoblasts (approximately 1×10^6 cells) were plated on 6 cm tissue culture plates coated with 0.5% gelatin (Sigma, St. Louis, Mo.) and grown in growth medium consisting of Dulbecco's Modified Eagle Medium (DMEM) (Gibco BRL, Gaithersburg Md.) supplemented with 20% fetal bovine serum (FBS; Gibco) and 0.5% chick embryo extract (CEE; Gibco). All animal studies were carried out following the institutional guidelines for ethical animal use. Human myoblasts were isolated using trypsin digestion from abdominal wall or chest wall muscle biopsies, and surgery. […] Myoblast migration and invasion were examined using a commercially available in vitro cell migration and invasion assay kit (Biocoat, Becton Dickinson, Franklin Lakes, N.J.) as described by Albini et al. (A rapid in vitro assay for quantitating the invasive potential of tumor cells Cancer Res 47:3239-3245, 1987). […] The number of cells per field was counted in 10 randomly selected fields and averaged for each condition. […]

Compound: CC(=O)N[C@@H](CS)C(=O)O [NAC, N-acetyl cysteine, reference compound]
- invasion relative to non-treated cells (mouse myoblasts; MMP-1 over-expressing myoblasts): 40%
- invasion relative to non-treated cells (mouse myoblasts; MMP-2 over-expressing myoblasts): 28%

Compound: bovine basic fibroblast growth factor [bFGF]
- effect on MMP-9 expression (92 kDa band) (MMP-9): only marginal increases in MMP-9 expression

Compound: human serum fibronectin
- stimulation of human myoblast invasion of Matrigel over the BSA control (human myoblasts): 2.3 fold
